In PMC7753147, “High-throughput determination of protein affinities using unmodified peptide libraries in nanomolar scale” (iScience, 2020):
Where a SMILES comes first, the peptide text is derived from it.

Experiments:
gephE [1] = molecular target: T1, gephE (Rattus norvegicus, UniProt Q03555); assay: TRIC displacement 12-point dose response against gephE-NN1D-Alexa647 complex; assay type: binding
T1 construct: gephE (residues 318-736) was generated; made in house
T1 sequence (Q03555 350-768): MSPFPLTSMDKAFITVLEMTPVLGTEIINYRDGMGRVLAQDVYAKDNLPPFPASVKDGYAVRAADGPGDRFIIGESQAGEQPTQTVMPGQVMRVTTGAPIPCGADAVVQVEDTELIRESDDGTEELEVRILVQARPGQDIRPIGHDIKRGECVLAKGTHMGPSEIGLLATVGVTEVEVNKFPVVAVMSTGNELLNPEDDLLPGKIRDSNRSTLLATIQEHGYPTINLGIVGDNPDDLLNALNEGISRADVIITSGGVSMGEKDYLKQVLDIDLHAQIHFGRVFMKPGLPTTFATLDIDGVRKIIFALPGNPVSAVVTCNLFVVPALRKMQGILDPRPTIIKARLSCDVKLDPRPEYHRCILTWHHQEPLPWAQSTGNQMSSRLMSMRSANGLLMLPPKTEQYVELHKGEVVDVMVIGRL

FL-geph = assay: µSPOT peptide microarray binding assay with full-length geph; settings: µSPOT peptide microarray, GlyRβ full positional scan, intensity normalised to wild-type sequence DLRSNDFSIVGSLPR (=1)
gephE [2] = assay: µSPOT peptide microarray binding assay with recombinant gephE; settings: µSPOT peptide microarray, GlyRβ full positional scan, recombinant gephE; intensity normalised to wild-type sequence DLRSNDFSIVGSLPR (=1)
native geph = assay: µSPOT peptide microarray binding assay with native geph from mouse brain lysate; settings: µSPOT peptide microarray, GlyRβ full positional scan, native geph from mouse brain lysate; intensity normalised to wild-type sequence DLRSNDFSIVGSLPR (=1)

Row | Ki (gephE [1]) [µM] | Fl-geph Binding Intensity [norm.] (FL-geph) | gephE Binding Intensity [norm.] (gephE [2]) | Native geph Binding Intensity [norm.] (native geph) | Compound
1 | 31.9 | – | – | – | CC[C@H](C)[C@H](NC(=O)[C@H](CO)NC(=O)[C@H](Cc1c[nH]c2ccccc12)NC(=O)[C@H](CC(=O)O)NC(=O)[C@H](CC(N)=O)NC(=O)[C@H](CO)NC(=O)[C@H](CCCNC(=N)N)NC(=O)[C@H](CC(C)C)NC(=O)[C@@H](N)CC(=O)O)C(=O)N[C@H](C(=O)NCC(=O)N[C@@H](CO)C(=O)N[C@@H](CC(C)C)C(=O)N1CCC[C@H]1C(=O)N[C@@H](CCCNC(=N)N)C(N)=O)C(C)C [GlyRβ_Full_Positional_Scan_128] (H-DLRSNDWSIVGSLPR-NH2)
2 | 185 | – | – | – | CC[C@H](C)[C@H](NC(=O)[C@H](CO)NC(=O)[C@H](Cc1ccc(O)cc1)NC(=O)[C@H](CC(=O)O)NC(=O)[C@H](CC(N)=O)NC(=O)[C@H](CO)NC(=O)[C@H](CCCNC(=N)N)NC(=O)[C@H](CC(C)C)NC(=O)[C@@H](N)CC(=O)O)C(=O)N[C@H](C(=O)NCC(=O)N[C@@H](CO)C(=O)N[C@@H](CC(C)C)C(=O)N1CCC[C@H]1C(=O)N[C@@H](CCCNC(=N)N)C(N)=O)C(C)C [GlyRβ_Full_Positional_Scan_129] (H-DLRSNDYSIVGSLPR-NH2)
3 | 42.4 | – | – | – | CC[C@H](C)[C@H](NC(=O)CNC(=O)[C@H](Cc1ccccc1)NC(=O)[C@H](CC(=O)O)NC(=O)[C@H](CC(N)=O)NC(=O)[C@H](CO)NC(=O)[C@H](CCCNC(=N)N)NC(=O)[C@H](CC(C)C)NC(=O)[C@@H](N)CC(=O)O)C(=O)N[C@H](C(=O)NCC(=O)N[C@@H](CO)C(=O)N[C@@H](CC(C)C)C(=O)N1CCC[C@H]1C(=O)N[C@@H](CCCNC(=N)N)C(N)=O)C(C)C [GlyRβ_Full_Positional_Scan_142] (H-DLRSNDFGIVGSLPR-NH2)
4 | 16.6 | – | – | – | CC[C@H](C)[C@H](NC(=O)[C@@H](NC(=O)[C@H](Cc1ccccc1)NC(=O)[C@H](CC(=O)O)NC(=O)[C@H](CC(N)=O)NC(=O)[C@H](CO)NC(=O)[C@H](CCCNC(=N)N)NC(=O)[C@H](CC(C)C)NC(=O)[C@@H](N)CC(=O)O)[C@@H](C)O)C(=O)N[C@H](C(=O)NCC(=O)N[C@@H](CO)C(=O)N[C@@H](CC(C)C)C(=O)N1CCC[C@H]1C(=O)N[C@@H](CCCNC(=N)N)C(N)=O)C(C)C [GlyRβ_Full_Positional_Scan_156] (H-DLRSNDFTIVGSLPR-NH2)
5 | 22.4 | – | – | – | CC(C)C[C@H](NC(=O)[C@H](CO)NC(=O)[C@H](Cc1ccccc1)NC(=O)[C@H](CC(=O)O)NC(=O)[C@H](CC(N)=O)NC(=O)[C@H](CO)NC(=O)[C@H](CCCNC(=N)N)NC(=O)[C@H](CC(C)C)NC(=O)[C@@H](N)CC(=O)O)C(=O)N[C@H](C(=O)NCC(=O)N[C@@H](CO)C(=O)N[C@@H](CC(C)C)C(=O)N1CCC[C@H]1C(=O)N[C@@H](CCCNC(=N)N)C(N)=O)C(C)C [GlyRβ_Full_Positional_Scan_164] (H-DLRSNDFSLVGSLPR-NH2)
6 | 21.4 | – | – | – | CC(C)C[C@H](NC(=O)[C@@H](N)CC(=O)O)C(=O)N[C@@H](CCCNC(=N)N)C(=O)N[C@@H](CO)C(=O)N[C@@H](CC(N)=O)C(=O)N[C@@H](CC(=O)O)C(=O)N[C@@H](Cc1ccccc1)C(=O)N[C@@H](CO)C(=O)N[C@H](C(=O)N[C@H](C(=O)NCC(=O)N[C@@H](CO)C(=O)N[C@@H](CC(C)C)C(=O)N1CCC[C@H]1C(=O)N[C@@H](CCCNC(=N)N)C(N)=O)C(C)C)C(C)C [GlyRβ_Full_Positional_Scan_166] (H-DLRSNDFSVVGSLPR-NH2)
7 | 9.01 | – | – | – | CC[C@H](C)[C@H](NC(=O)[C@H](CO)NC(=O)[C@H](Cc1ccccc1)NC(=O)[C@H](CC(=O)O)NC(=O)[C@H](CC(N)=O)NC(=O)[C@H](CO)NC(=O)[C@H](CCCNC(=N)N)NC(=O)[C@H](CC(C)C)NC(=O)[C@@H](N)CC(=O)O)C(=O)N[C@H](C(=O)NCC(=O)N[C@@H](CO)C(=O)N[C@@H](CC(C)C)C(=O)N1CCC[C@H]1C(=O)N[C@@H](CCCNC(=N)N)C(N)=O)[C@@H](C)CC [GlyRβ_Full_Positional_Scan_183] (H-DLRSNDFSIIGSLPR-NH2)
8 | – | 1.16 | 1.19 | 1.2 | QLRSNDFSIVGSLPR [GlyRβ_Full_Positional_Scan_020]
9 | – | 0.99 | 0.98 | 0.46 | RLRSNDFSIVGSLPR [GlyRβ_Full_Positional_Scan_012]
10 | – | 0.91 | 1.04 | 0.69 | SLRSNDFSIVGSLPR [GlyRβ_Full_Positional_Scan_015]
11 | – | 0.85 | 1.16 | 0.79 | TLRSNDFSIVGSLPR [GlyRβ_Full_Positional_Scan_016]
12 | – | 1.18 | 1.05 | 0.8 | VLRSNDFSIVGSLPR [GlyRβ_Full_Positional_Scan_006]
13 | – | 0.86 | 0.91 | 0.67 | WLRSNDFSIVGSLPR [GlyRβ_Full_Positional_Scan_008]
14 | – | 1 | 1.05 | 0.74 | YLRSNDFSIVGSLPR [GlyRβ_Full_Positional_Scan_009]
